Data reported in patent US20240261273A1 (PRILENIA NEUROTHERAPEUTICS LTD., priority 2021, published 2024).

Key:
[1] = test system: optic nerve head astrocytes (ONHA); experiment: ONHA cell viability after tBHP oxidative stress, MTT assay; details: 16 h, then tBHP 40 μM 6 h
Procedure: Cell viability was assessed using the MTT colorimetric assay.

[2] = test system: optic nerve head astrocytes (ONHA); experiment: ONHA oxidative stress (ROS) after tBHP, DCF fluorescence; format: cell-based, rat; details: 0.05 μM alone, 16 h, then tBHP 80 μM 6 h
Procedure: CM-H2DCFDA is cleaved to form non-fluorescent H2DCF, which is then oxidized to form the fluorescent DCF. DCF levels are indicative of ROS. Cell viability was also assessed using the commonly used colorimetric MTT assay.

Sigma-1 Receptor (S1R) = Sigma-1 Receptor (S1R) (Homo sapiens (Human), UniProt Q99720); experiment: In-vitro binding assay, Sigma-1 receptor (Eurofins Panlabs); details: Cheng Prusoff equation
RGCs = details: two experimental glaucoma models, elevated IOP
B104 neuroblastoma cells = details: in-situ ELISA; Geva et al. 2016; cited from earlier work

Chain of Sigma-1 Receptor (S1R) (Q99720 whole entry, species assumed): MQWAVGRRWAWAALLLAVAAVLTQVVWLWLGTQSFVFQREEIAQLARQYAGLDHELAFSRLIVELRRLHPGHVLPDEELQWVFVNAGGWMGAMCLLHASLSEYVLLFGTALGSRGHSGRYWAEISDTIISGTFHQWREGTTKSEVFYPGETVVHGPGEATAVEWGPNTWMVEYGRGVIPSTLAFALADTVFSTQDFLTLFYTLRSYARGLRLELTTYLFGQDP

Row | Structure (SMILES) | increase in cell viability ([1]; 0.01 μM alone) | reduction of oxidative stress (DCF fluorescence) [2] [%] | S1R Ki (Sigma-1 Receptor (S1R)) | increase in cell viability ([1]; 0.1 μM alone) | effect on RGCs (RGCs) | relation of protective effect to IOP (RGCs) | BDNF secretion in rat neuroblastoma cells (B104 neuroblastoma cells)
1 | CCCN1CCC(O)(c2cccc(S(C)(=O)=O)c2)CC1 [Compound 1] | neither pridopidine (0.05 μM) nor compound 1 (0.01 μM) have any effect | 5 | high affinity |  |  |  | 
2 | CCCN1CC[C@@H](c2cccc(S(C)(=O)=O)c2)[C@@H](O)C1 [Compound 4] |  |  | high affinity | neither pridopidine (0.05 μM) nor compound 4 (0.1 μM) have any effect |  |  | 
3 | CCCN1CCC(c2cccc(S(C)(=O)=O)c2)CC1 [Pridopidine, 4-(3-(Methylsulfonyl)phenyl)-1-propylpiperidine] |  | 30 |  |  | neuroprotective effect | not mediated by lowering IOP | dose dependent increase
